# Patent publication USRE48461E1, “Modulation of androgen receptor expression” (Ionis Pharmaceuticals, Inc., priority 2012, dated 2021)
# Oligonucleotides are written 5' to 3', each unit as a sugar letter and its base; * is a phosphorothioate linkage, no mark a phosphodiester; rarer units and linkages stand in square brackets, end groups in braces. Plain capitals give the bases only. e = 2'-O-(2-methoxyethyl) (MOE); k = constrained ethyl (cEt); [5mC] = 5-methylcytosine; d = 2'-deoxy (DNA)
# Tests used:
# AR mRNA [1] = test: AR mRNA in LnCaP cells by free uptake (hAR_LTS00943); format: cell-based, human; conditions: 24 hrs
# Protocol: Cells were plated at a concentration of 4,000 cells/well in 96-well plates. ISIS oligonucleotides, specified in Table 68, were added individually at 0.02 μM, 0.10 μM, 0.50 μM, 2.50 μM, or 10.00 μM. After an incubation period of 24 hrs, mRNA levels were measured using primer probe set hAR_LTS00943.
# AR mRNA [2] = test: Dose-dependent antisense inhibition of human AR in HuVEC cells (electroporation, qRT-PCR RTS3559, IC50); format: cell-based; conditions: for inhibition of AR mRNA at 46.9 nM: 46.9 nM ASO; for inhibition of AR mRNA at 187.5 nM: 187.5 nM ASO; for inhibition of AR mRNA at 750.0 nM: 750.0 nM ASO; for inhibition of AR mRNA at 3000.0 nM: 3000.0 nM ASO
# Outline: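 HuVEC cells dosed with antisense oligonucleotides by electroporation and treated approximately 16 hours. AR mRNA quantified by real-time qPCR with primer probe set RTS3559 and normalised to total RNA by RIBOGREEN; IC50 from dose-response.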
# AR mRNA [3] = test: Antisense inhibition of human AR in HuVEC cells, single concentration (electroporation, qRT-PCR RTS3559); format: cell-based; conditions: ~24 h
# Outline: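 AR mRNA levels were measured with human primer-probe set RTS3559 and adjusted for total RNA (RIBOGREEN). Cells were HuVEC, with each antisense oligonucleotide delivered by electroporation at one concentration.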
# [4] = 62.5 nM, HuVEC, ~16 h, Table 10
# [5] = 125.0 nM, HuVEC, ~16 h, Table 10
# [6] = 500.0 nM, HuVEC, ~16 h, Table 10
# [7] = 1000.0 nM, HuVEC, ~16 h, Table 10
# [8] = 46.9 nM, HuVEC, ~16 h, Table 15
# [9] = 187.5 nM, HuVEC, ~16 h, Table 15
# [10] = 750.0 nM, HuVEC, ~16 h, Table 15
# [11] = 3000.0 nM, HuVEC, ~16 h, Table 15
# [12] = 31.25 nM, HuVEC, ~16 h, Table 8
# [13] = 125.0 nM, HuVEC, ~16 h, Table 8
# [14] = 500.0 nM, HuVEC, ~16 h, Table 8
# [15] = 1000.0 nM, HuVEC, ~16 h, Table 8
Substance,Percent inhibition of AR mRNA (AR mRNA [1]; 0.02 μM),Percent inhibition of AR mRNA (AR mRNA [1]; 0.1 μM),Percent inhibition of AR mRNA (AR mRNA [1]; 0.5 μM),Percent inhibition of AR mRNA (AR mRNA [1]; 10 μM),percent inhibition of AR (AR mRNA [2]; [4]),percent inhibition of AR (AR mRNA [2]; [5]),percent inhibition of AR (AR mRNA [2]; [6]),percent inhibition of AR (AR mRNA [2]; [7]),"IC50 (AR mRNA [2]; HuVEC, ~16 h, Table 10)","% inhibition (AR mRNA [3]; 1,000 nM ASO, Table 13)",further results
569227 (antisense eT*eG*kA*kT*kT*dT*dA*dA*dT*dG*dG*dT*kT*kG*k[5mC]*eA) [compound 569227],0%,0%,4%,55%,8%,40%,51%,73%,388 nM,51%,"percent inhibition of AR (AR mRNA [2]; 31.25 nM, HuVEC, ~16 h, Table 14): 13%; percent inhibition of AR (AR mRNA [2]; 62.5 nM, HuVEC, ~16 h, Table 14): 22%; percent inhibition of AR (AR mRNA [2]; 125.0 nM, HuVEC, ~16 h, Table 14): 45%; percent inhibition of AR (AR mRNA [2]; 500.0 nM, HuVEC, ~16 h, Table 14): 61%; percent inhibition of AR (AR mRNA [2]; 1000.0 nM, HuVEC, ~16 h, Table 14): 74%; IC50 (AR mRNA [2]; HuVEC, ~16 h, Table 14): 255 nM"
579666 (antisense eT*kG*kA*eT*eT*kT*kA*dA*dT*dG*dG*dT*dT*dG*k[5mC]*kA) [compound 579666],0%,8%,30%,68%,33%,34%,64%,80%,229 nM,–,–
586124 (kG*kA*kT*dT*dT*dA*dA*dT*dG*dG*dT*dT*dG*k[5mC]*kA*kA; further chemistry not given here) [compound 586124],0%,0%,19%,82%,–,–,–,–,–,82%,"percent inhibition of AR (AR mRNA [2]; [8]): 28%; percent inhibition of AR (AR mRNA [2]; [9]): 47%; percent inhibition of AR (AR mRNA [2]; [10]): 84%; percent inhibition of AR (AR mRNA [2]; [11]): 94%; IC50 (AR mRNA [2]; HuVEC cells, electroporation): 130 nM; inhibition of AR mRNA at 46.9 nM (AR mRNA [2]; HuVEC cells, electroporation): 28%; inhibition of AR mRNA at 187.5 nM (AR mRNA [2]; HuVEC cells, electroporation): 47%; inhibition of AR mRNA at 750.0 nM (AR mRNA [2]; HuVEC cells, electroporation): 84%; inhibition of AR mRNA at 3000.0 nM (AR mRNA [2]; HuVEC cells, electroporation): 94%; IC50 (AR mRNA [2]; HuVEC, ~16 h, Table 15): 130 nM"
569221 (antisense eT*eG*kA*kT*kT*dT*dA*dA*dT*dG*dG*dT*dT*kG*k[5mC]*kA) [compound 569221],18%,31%,49%,91%,–,–,–,–,–,–,"percent inhibition of AR (AR mRNA [2]; 62.5 nM, HuVEC, ~16 h, Table 12): 12%; percent inhibition of AR (AR mRNA [2]; 125.0 nM, HuVEC, ~16 h, Table 12): 32%; percent inhibition of AR (AR mRNA [2]; 500.0 nM, HuVEC, ~16 h, Table 12): 57%; percent inhibition of AR (AR mRNA [2]; 1000.0 nM, HuVEC, ~16 h, Table 12): 73%; IC50 (AR mRNA [2]; HuVEC, ~16 h, Table 12): 294 nM"
586227 (kT*kG*kA*kT*kT*dT*dA*dA*dT*dG*dG*dT*dT*kG*k[5mC]*kA; antisense) [compound 586227],0%,0%,14%,59%,–,–,–,–,–,87%,"percent inhibition of AR (AR mRNA [2]; [8]): 20%; percent inhibition of AR (AR mRNA [2]; [9]): 60%; percent inhibition of AR (AR mRNA [2]; [10]): 88%; percent inhibition of AR (AR mRNA [2]; [11]): 96%; IC50 (AR mRNA [2]; HuVEC cells, electroporation): 130 nM; inhibition of AR mRNA at 46.9 nM (AR mRNA [2]; HuVEC cells, electroporation): 20%; inhibition of AR mRNA at 187.5 nM (AR mRNA [2]; HuVEC cells, electroporation): 60%; inhibition of AR mRNA at 750.0 nM (AR mRNA [2]; HuVEC cells, electroporation): 88%; inhibition of AR mRNA at 3000.0 nM (AR mRNA [2]; HuVEC cells, electroporation): 96%; IC50 (AR mRNA [2]; HuVEC, ~16 h, Table 15): 130 nM"
569216 (antisense eT*kG*kA*kT*dT*dT*dA*dA*dT*dG*dG*dT*kT*kG*k[5mC]*eA) [compound 569216],15%,17%,49%,82%,–,–,–,–,–,–,"percent inhibition of AR (AR mRNA [2]; [12]): 38%; percent inhibition of AR (AR mRNA [2]; 62.5 nM, HuVEC, ~16 h, Table 8): 51%; percent inhibition of AR (AR mRNA [2]; [13]): 68%; percent inhibition of AR (AR mRNA [2]; [14]): 91%; percent inhibition of AR (AR mRNA [2]; [15]): 96%; IC50 (AR mRNA [2]; HuVEC, ~16 h, Table 8): 50 nM; % inhibition (AR mRNA [3]; 250 nM ASO, Table 7): 68%"
579667 (antisense eT*kT*kG*eA*eT*kT*kT*dA*dA*dT*dG*dG*dT*dT*kG*k[5mC]) [compound 579667],0%,0%,8%,40%,30%,29%,36%,76%,411 nM,–,–
569213 (antisense kT*kG*kA*dT*dT*dT*dA*dA*dT*dG*dG*dT*kT*kG*k[5mC]*eA) [compound 569213],3%,0%,31%,78%,–,–,–,–,–,–,"percent inhibition of AR (AR mRNA [2]; [12]): 35%; percent inhibition of AR (AR mRNA [2]; 62.5 nM, HuVEC, ~16 h, Table 8): 53%; percent inhibition of AR (AR mRNA [2]; [13]): 65%; percent inhibition of AR (AR mRNA [2]; [14]): 94%; percent inhibition of AR (AR mRNA [2]; [15]): 96%; IC50 (AR mRNA [2]; HuVEC, ~16 h, Table 8): 60 nM; % inhibition (AR mRNA [3]; 250 nM ASO, Table 7): 69%"
